Measured values as given in US20230407373A1 (priority 2020, published 2023).
Read-outs that look alike come from different tables or passages of the source.

How the values were obtained:
Assay type in all cases: binding
gRNA of HCoV-OC43 = conditions: for target (spectral count) / background (spectral count): type g_36_m, 36 hpi, Probe I; for target (spectral count): HCoV-OC43-infected HCT-8 cells; for background (spectral count): uninfected-probe control
HCoV-OC43 gRNA and sgRNA = conditions: for target (unweighted spectral count, OC43 Probe II) / background (unweighted spectral count, no-probe control): type n_48_v, 48 hpi; for target (unweighted spectral count, OC43 Probe II): OC43 Probe II capture on infected cells; for background (unweighted spectral count, no-probe control): no-probe control on infected cells; for target (unweighted spectral count, OC43 Probe II capture) / target (unweighted spectral count): tested against no-probe control; for target (unweighted spectral count, OC43 Probe II capture): FDR<10%; for target (spectral count) / background (spectral count): type s_36_m, Probe II; for target (spectral count): HCoV-OC43-infected HCT-8 cells; for background (spectral count): uninfected-probe control; for target (unweighted spectral count): OC43 Probe II, infected cells
[1] = system: SARS-CoV-2 gRNA and sgRNAs; conditions: for target (unweighted spectral count of the protein in the RNP capture experiment): LC-MS/MS label-free quantification, probe pool not given; for back-ground (unweighted spectral count of the protein in the control experiment): protein background of the control (e.g. no-probe) experiment; for target (unweighted spectral count in RNP capture): Probe II capture, LC-MS/MS LFQ; for background (unweighted spectral count in control): no-probe control pull-down, used as background for Probe II
SARS-CoV-2 gRNA = system: SARS-CoV-2 gRNA
[2] = type n_48_v: 48 hours post-infection, infected cells, OC43 Probe I, unweighted spectral count
[3] = type n_48_v: 48 hours post-infection, no-probe control on infected cells

## ABCF1
gRNA of HCoV-OC43; [2]
  target (spectral count, OC43 Probe I RNP capture): 7
gRNA of HCoV-OC43; [3]
  background (spectral count, no-probe control): 1
HCoV-OC43 gRNA and sgRNA
  target (unweighted spectral count, OC43 Probe II): 5
  background (unweighted spectral count, no-probe control): 1

## TUBB4B
[1]
  target (unweighted spectral count of the protein in the RNP capture experiment): 6
  back-ground (unweighted spectral count of the protein in the control experiment): 1

## EZR
SARS-CoV-2 gRNA; Probe I capture, […], LC-MS/MS LFQ
  target (unweighted spectral count in RNP capture): 5
SARS-CoV-2 gRNA; no-probe control pull-down, used as background for Probe I
  background (unweighted spectral count in control): 1

## XRCC5: host protein, UniProt P13010
gRNA of HCoV-OC43
  target (spectral count): 8
  background (spectral count): 1
gRNA of HCoV-OC43; [2]
  target (spectral count, OC43 Probe I RNP capture): 10
gRNA of HCoV-OC43; [3]
  background (spectral count, no-probe control): 1
HCoV-OC43 gRNA and sgRNA; 36 hpi, type n_36_v
  target (unweighted spectral count, OC43 Probe II capture): 7
HCoV-OC43 gRNA and sgRNA
  target (unweighted spectral count, OC43 Probe II): 12
  background (unweighted spectral count, no-probe control): 1
HCoV-OC43 gRNA and sgRNA; 36 hpi
  target (spectral count): 7
  background (spectral count): 1

## LGALS3
HCoV-OC43 gRNA and sgRNA
  target (unweighted spectral count, OC43 Probe II): 5
  background (unweighted spectral count, no-probe control): 1

## DDX54
HCoV-OC43 gRNA and sgRNA; 36 hpi, type n_36_v
  target (unweighted spectral count, OC43 Probe II capture): 5

## GEMIN5
[1]
  target (unweighted spectral count of the protein in the RNP capture experiment): 5
  back-ground (unweighted spectral count of the protein in the control experiment): 1

## DDX39B
gRNA of HCoV-OC43; [2]
  target (spectral count, OC43 Probe I RNP capture): 5
gRNA of HCoV-OC43; [3]
  background (spectral count, no-probe control): 1
HCoV-OC43 gRNA and sgRNA
  target (unweighted spectral count, OC43 Probe II): 6
  background (unweighted spectral count, no-probe control): 1

## ATP13A1
HCoV-OC43 gRNA and sgRNA; 36 hpi, type n_36_v
  target (unweighted spectral count, OC43 Probe II capture): 6

## KHDRBS1: host protein, UniProt Q07666
gRNA of HCoV-OC43
  target (spectral count): 13
  background (spectral count): 2
HCoV-OC43 gRNA and sgRNA; 36 hpi, type n_36_v
  target (unweighted spectral count, OC43 Probe II capture): 12
HCoV-OC43 gRNA and sgRNA; 24 hpi (type n_24_v)
  target (unweighted spectral count): 10
HCoV-OC43 gRNA and sgRNA
  target (unweighted spectral count, OC43 Probe II): 14
  background (unweighted spectral count, no-probe control): 1
HCoV-OC43 gRNA and sgRNA; 36 hpi
  target (spectral count): 12
  background (spectral count): 2

## NSP8
gRNA of HCoV-OC43
  background (spectral count, no-probe control): 1
  target (spectral count, OC43 Probe I RNP capture): 5

## EIF4A1
[1]
  target (unweighted spectral count in RNP capture): 8
  background (unweighted spectral count in control): 1
HCoV-OC43 gRNA and sgRNA; 24 hpi (type n_24_v)
  target (unweighted spectral count): 5

## PRPF8
HCoV-OC43 gRNA and sgRNA; 24 hpi, type n_24_v
  target (unweighted spectral count, OC43 Probe II capture): 7
HCoV-OC43 gRNA and sgRNA
  target (unweighted spectral count, OC43 Probe II): 20
  background (unweighted spectral count, no-probe control): 5

## SUPT16H
HCoV-OC43 gRNA and sgRNA; 12 hpi (type n_12_v)
  target (unweighted spectral count): 4

## HNRNPK: host protein, UniProt P61978
gRNA of HCoV-OC43
  target (spectral count): 65
  background (spectral count): 16
gRNA of HCoV-OC43; [2]
  target (spectral count, OC43 Probe I RNP capture): 64
gRNA of HCoV-OC43; [3]
  background (spectral count, no-probe control): 8
[1]
  target (unweighted spectral count in RNP capture): 52
  background (unweighted spectral count in control): 1
HCoV-OC43 gRNA and sgRNA; 36 hpi, type n_36_v
  target (unweighted spectral count, OC43 Probe II capture): 66
HCoV-OC43 gRNA and sgRNA; 24 hpi (type n_24_v)
  target (unweighted spectral count): 28
HCoV-OC43 gRNA and sgRNA
  target (unweighted spectral count, OC43 Probe II): 63
  background (unweighted spectral count, no-probe control): 8
HCoV-OC43 gRNA and sgRNA; 36 hpi
  target (spectral count): 66
  background (spectral count): 12

## EEF1G
HCoV-OC43 gRNA and sgRNA; 36 hpi, type n_36_v
  target (unweighted spectral count, OC43 Probe II capture): 4

## SQSTM1: host protein, UniProt Q13501
gRNA of HCoV-OC43
  target (spectral count): 7
  background (spectral count): 1
[1]
  target (unweighted spectral count in RNP capture): 19
  background (unweighted spectral count in control): 1

## ZFR
HCoV-OC43 gRNA and sgRNA; 24 hpi, type n_24_v
  target (unweighted spectral count, OC43 Probe II capture): 4
HCoV-OC43 gRNA and sgRNA
  target (unweighted spectral count, OC43 Probe II): 6
  background (unweighted spectral count, no-probe control): 1

## CCAR2: host protein, UniProt Q8N163
gRNA of HCoV-OC43
  target (spectral count): 20
  background (spectral count): 1
gRNA of HCoV-OC43; [2]
  target (spectral count, OC43 Probe I RNP capture): 23
gRNA of HCoV-OC43; [3]
  background (spectral count, no-probe control): 1
HCoV-OC43 gRNA and sgRNA; 36 hpi, type n_36_v
  target (unweighted spectral count, OC43 Probe II capture): 12
HCoV-OC43 gRNA and sgRNA; 24 hpi (type n_24_v)
  target (unweighted spectral count): 8
HCoV-OC43 gRNA and sgRNA
  target (unweighted spectral count, OC43 Probe II): 20
  background (unweighted spectral count, no-probe control): 1
HCoV-OC43 gRNA and sgRNA; 36 hpi
  target (spectral count): 12
  background (spectral count): 1

## AKAP8
HCoV-OC43 gRNA and sgRNA; 36 hpi, type n_36_v
  target (unweighted spectral count, OC43 Probe II capture): 4

## LARP4B
[1]
  target (unweighted spectral count of the protein in the RNP capture experiment): 6
  back-ground (unweighted spectral count of the protein in the control experiment): 1
HCoV-OC43 gRNA and sgRNA; 24 hpi (type n_24_v)
  target (unweighted spectral count): 6
HCoV-OC43 gRNA and sgRNA
  target (unweighted spectral count, OC43 Probe II): 6
  background (unweighted spectral count, no-probe control): 1

## ZC3H7B
HCoV-OC43 gRNA and sgRNA; 24 hpi (type n_24_v)
  target (unweighted spectral count): 6

## PPIA
gRNA of HCoV-OC43; [2]
  target (spectral count, OC43 Probe I RNP capture): 10
gRNA of HCoV-OC43; [3]
  background (spectral count, no-probe control): 1
[1]
  back-ground (unweighted spectral count of the protein in the control experiment): 10
HCoV-OC43 gRNA and sgRNA; 36 hpi, type n_36_v
  target (unweighted spectral count, OC43 Probe II capture): 13
HCoV-OC43 gRNA and sgRNA
  target (unweighted spectral count, OC43 Probe II): 12
  background (unweighted spectral count, no-probe control): 1

## ESYT1
HCoV-OC43 gRNA and sgRNA; 36 hpi, type n_36_v
  target (unweighted spectral count, OC43 Probe II capture): 4

## FXR2
gRNA of HCoV-OC43; [2]
  target (spectral count, OC43 Probe I RNP capture): 7
gRNA of HCoV-OC43; [3]
  background (spectral count, no-probe control): 1
[1]
  target (unweighted spectral count in RNP capture): 23
  background (unweighted spectral count in control): 1
HCoV-OC43 gRNA and sgRNA; 36 hpi, type n_36_v
  target (unweighted spectral count, OC43 Probe II capture): 5
HCoV-OC43 gRNA and sgRNA
  target (unweighted spectral count, OC43 Probe II): 7
  background (unweighted spectral count, no-probe control): 1

## GAPDM
SARS-CoV-2 gRNA; […], LC-MS/MS, Probe I sample (first 199 lines of Table 2)
  target (unweighted spectral count of the protein in the RNP capture): 7

## HIST1H1C
HCoV-OC43 gRNA and sgRNA; 12 hpi (type n_12_v)
  target (unweighted spectral count): 7

## LSM14A
[1]
  target (unweighted spectral count in RNP capture): 8
  background (unweighted spectral count in control): 1

## FAM125A
[1]
  target (unweighted spectral count in RNP capture): 97
